Literature values, collected in patent US12268209B2, “Liquid sulfonylurea-containing herbicidal compositions” (Mitsui AgriScience International S.A./N.V., priority 2014, dated 2025).

Tests used:
[1] = after 5 days, depending on the selected solvent; 52° C.
[2] = after one week of storage at 40° C.; compositions of WO 2007/027863 A2

| SMILES | metsulfuron methyl lost [1] | tribenuron-methyl lost [2] |
| --- | --- | --- |
| COC(=O)c1ccccc1S(=O)(=O)NC(=O)Nc1nc(C)nc(OC)n1 [metsulfuron-methyl, methyl 2-[[[[(4-methoxy-6-methyl-1,3,5-triazin-2-yl)amino]carbonyl]amino]sulfonyl]benzoate] | 25-30% | – |
| COC(=O)c1ccccc1S(=O)(=O)NC(=O)N(C)c1nc(C)nc(OC)n1 [tribenuron-methyl, methyl 2-[[[[N-(4-methoxy-6-methyl-1,3,5-triazin-2-yl)-N-methylamino]carbonyl]amino]-sulfonyl]benzoate] | – | up to 66.5% |
